# Source: article PMC3290907 (Evidence-based Complementary and Alternative Medicine : eCAM, 2012)
# Biological target: T1, PDE4 (homogenate of guinea pig lungs or hearts)
# T1 construct: gene PDE4A; native enzyme activity in lung or heart homogenate; subtype not resolved; other PDE families may be present
# Test: [3H]-cAMP hydrolysis, two-step radioassay, Lineweaver-Burk
# Assay type: biochemical, Cavia porcellus
# Details: cAMP substrate; 3 mM MgCl2; pH 7.4; 37°C; competitive; lung or heart homogenate
smiles,measurement,value
"COc1ccc([C@@H]2CC(=O)c3c(O)cc(O)cc3O2)cc1O [hesperetin, 5,7,3′-trihydroxy-4′-methoxyflavanone]",Ki,45.6 ± 2.3 µM
